Assay results reported in US11406620B2, “Use of carbamate compound for preventing or treating diseases associated with increase in late sodium current” (SK BIOPHARMACEUTICALS CO., LTD., priority 2017, dated 2022).

Columns and labels:
[1] = molecular target: hNav1.5 sodium channel, fast current (Homo sapiens, UniProt Q14524); assay: Whole cell patch clamp, fast sodium current of hNav1.5 in HEK293 cells; conditions: pH 7.4
Description: (§1) To study the […] Nav1.5 channel, a cell line stably expressing […] (Gene ID: 6331, https://www.ncbi.nlm.nih.gov/gene/6331) encoding a human Nav1.5 channel in HEK293 cells was used.
(§2) Pulse-protocol uses a protocol that gives a −15 mV stimulus for 385 ms at a holding voltage of −120 mV, and then returns to a holding voltage of −120 mV, and the current generated with the −15 mV stimulus (fast current) and the current just before returning to −120 mV (late current) was measured.
(§3) The composition of the external solution used in the experiment is as follows: 137 mM NaCl, 4 mM KCl, 1.8 mM CaCl2) mM, 1 mM MgCl2, 10 mM HEPES, 11 mM D-Glucose, pH 7.4 (NaOH), 280 mOsm.
(§4) The composition of the internal solution used in the experiment is as follows: 130 mM CsCl, 1 mM MgCl2, 7 mM NaCl, 5 mM HEPES, 5 mM EGTA, pH 7.2 (CsOH), 270 mOsm.

[2] = molecular target: human recombinant sodium ion channel Nav1.5 (hNav1.5), late current (Homo sapiens, UniProt Q14524); assay: Whole cell patch clamp, late sodium current of hNav1.5 in HEK293 cells (veratridine-activated)
Chain of human recombinant sodium ion channel Nav1.5 (hNav1.5), late current (Q14524 whole entry): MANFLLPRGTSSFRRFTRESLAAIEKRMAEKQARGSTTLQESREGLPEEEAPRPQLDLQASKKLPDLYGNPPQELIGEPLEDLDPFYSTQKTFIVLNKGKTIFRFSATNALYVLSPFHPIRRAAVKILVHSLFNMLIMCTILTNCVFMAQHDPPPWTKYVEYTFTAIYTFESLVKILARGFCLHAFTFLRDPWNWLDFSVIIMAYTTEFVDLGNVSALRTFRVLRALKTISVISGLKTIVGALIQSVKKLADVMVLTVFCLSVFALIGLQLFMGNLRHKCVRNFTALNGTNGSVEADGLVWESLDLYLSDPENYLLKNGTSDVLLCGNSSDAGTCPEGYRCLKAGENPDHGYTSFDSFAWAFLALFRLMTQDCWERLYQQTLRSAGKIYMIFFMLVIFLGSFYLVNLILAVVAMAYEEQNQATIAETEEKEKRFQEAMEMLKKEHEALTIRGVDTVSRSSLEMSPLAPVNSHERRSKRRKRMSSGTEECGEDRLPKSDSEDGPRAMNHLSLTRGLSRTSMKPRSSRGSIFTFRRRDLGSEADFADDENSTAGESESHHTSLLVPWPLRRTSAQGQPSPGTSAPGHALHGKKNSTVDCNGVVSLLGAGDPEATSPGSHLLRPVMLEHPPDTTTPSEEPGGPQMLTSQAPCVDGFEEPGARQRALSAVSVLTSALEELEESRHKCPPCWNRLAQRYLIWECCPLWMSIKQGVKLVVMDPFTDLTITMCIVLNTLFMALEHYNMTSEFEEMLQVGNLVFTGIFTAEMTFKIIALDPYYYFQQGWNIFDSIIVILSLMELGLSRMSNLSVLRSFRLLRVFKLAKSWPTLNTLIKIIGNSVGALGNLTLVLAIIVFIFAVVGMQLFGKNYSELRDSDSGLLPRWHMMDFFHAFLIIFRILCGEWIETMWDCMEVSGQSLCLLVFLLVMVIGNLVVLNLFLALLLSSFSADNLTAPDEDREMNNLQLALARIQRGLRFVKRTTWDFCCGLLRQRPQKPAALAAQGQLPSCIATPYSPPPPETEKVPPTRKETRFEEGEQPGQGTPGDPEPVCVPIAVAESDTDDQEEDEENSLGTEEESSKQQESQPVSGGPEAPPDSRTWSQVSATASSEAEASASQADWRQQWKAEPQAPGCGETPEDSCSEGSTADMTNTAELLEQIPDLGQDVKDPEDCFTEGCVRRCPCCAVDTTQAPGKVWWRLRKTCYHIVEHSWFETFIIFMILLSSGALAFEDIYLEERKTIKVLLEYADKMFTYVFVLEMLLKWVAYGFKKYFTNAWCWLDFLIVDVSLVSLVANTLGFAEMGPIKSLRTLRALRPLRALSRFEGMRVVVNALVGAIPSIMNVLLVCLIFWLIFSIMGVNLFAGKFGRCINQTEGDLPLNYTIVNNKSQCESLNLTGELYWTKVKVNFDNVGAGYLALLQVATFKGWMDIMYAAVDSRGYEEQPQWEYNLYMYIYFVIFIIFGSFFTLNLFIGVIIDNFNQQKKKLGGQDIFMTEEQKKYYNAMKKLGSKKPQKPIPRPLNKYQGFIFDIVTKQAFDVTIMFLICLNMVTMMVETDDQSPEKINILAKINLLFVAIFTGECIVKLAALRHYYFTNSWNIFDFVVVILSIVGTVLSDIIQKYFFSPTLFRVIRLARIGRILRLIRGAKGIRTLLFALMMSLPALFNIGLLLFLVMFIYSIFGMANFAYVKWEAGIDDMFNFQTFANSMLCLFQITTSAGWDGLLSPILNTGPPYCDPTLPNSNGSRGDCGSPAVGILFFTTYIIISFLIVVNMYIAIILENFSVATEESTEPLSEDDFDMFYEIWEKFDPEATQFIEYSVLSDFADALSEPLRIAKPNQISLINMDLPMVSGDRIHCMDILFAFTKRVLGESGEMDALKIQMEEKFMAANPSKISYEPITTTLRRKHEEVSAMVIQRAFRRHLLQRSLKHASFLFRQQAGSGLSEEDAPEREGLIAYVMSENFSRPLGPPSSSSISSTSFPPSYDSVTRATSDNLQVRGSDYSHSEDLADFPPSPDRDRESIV
Description: as §1, §2, §3, §4

[3] = molecular target: hNav1.5 sodium channel, late current (Homo sapiens, UniProt Q14524); assay: as above; conditions: human, pH 7.4
Chain of hNav1.5 sodium channel, late current (Q14524 whole entry): as above
Description: as §1, §2, §3, §4

[4] = HEK293 cells stably expressing human Nav1.5 (SCN5A)

SMILES	Inhibition ratio of late current/fast current ([2]; 10 μM)	Inhibition ratio of late current/fast current ([2]; 30 μM)	Inhibition ratio of late current/fast current ([2]; 100 μM)	Inhibition ratio of late current/fast current ([2]; 300 μM)	inhibition at 10 μM [1, 4] [%]	inhibition at 30 μM [1, 4] [%]	inhibition at 100 μM [1, 4] [%]	inhibition at 300 μM [1, 4] [%]	inhibition at 10 μM [3, 4] [%]	inhibition at 30 μM [3, 4] [%]	inhibition at 100 μM [3, 4] [%]	inhibition at 300 μM [3, 4] [%]	further results
NC(=O)O[C@@H](Cn1ncnn1)c1ccccc1Cl [Test compound, carbamic acid (R)-1-(2-chlorophenyl)-2-tetrazol-2-yl-ethyl ester]	3.8	4.2	2.6	1.9									inhibition at 10 μM [1]: 3%; inhibition at 30 μM [1]: 5.7%; inhibition at 100 μM [1]: 13%; inhibition at 300 μM [1]: 26.2%; Selectivity of inhibition of late versus fast sodium current (in words) ([2]; at a concentration in the drug effective concentration range, compared to the comparative compounds): inhibited the late sodium current more selectively than the fast sodium current; inhibition at 10 μM [3]: 11.4%; inhibition at 30 μM [3]: 24%; inhibition at 100 μM [3]: 33.9%; inhibition at 300 μM [3]: 49.8%
NC(=O)N1c2ccccc2C=Cc2ccccc21 [Carbamazepine]	2.6	2.9	2.7	1.7	7.7	12.3	24.5	51.4	20.4	36.2	65.4	86.9	
Nc1nnc(-c2cccc(Cl)c2Cl)c(N)n1 [Lamotrigine, lamotrigine]	1.3	2.0	2.0	1.6	8.3	16.6	29	51.2	10.7	32.9	56.7	80.1	
